Measurements taken from publication PMC11856932, “Aeromonas hydrophila CobQ is a new type of NAD^+- and Zn^2+-independent protein lysine deacetylase” (eLife, 2025).

Key:
Format in all cases: biochemical
AhCobB [1] = molecular target: T1, AhCobB (Aeromonas hydrophila, UniProt A0KKN9); assay: deacetylation of Kac-BSA, anti-Kac western blot; details: 0.25 mM NAD+ as co-substrate; 150 mM Tris-HCl pH 8.0, 10% glycerol, 37 °C, 3 h
T1 construct: gene cobB; recombinant, pET-21b/32a vector, E. coli BL21(DE3), Ni-NTA purified
T1 sequence (A0KKN9 1-257): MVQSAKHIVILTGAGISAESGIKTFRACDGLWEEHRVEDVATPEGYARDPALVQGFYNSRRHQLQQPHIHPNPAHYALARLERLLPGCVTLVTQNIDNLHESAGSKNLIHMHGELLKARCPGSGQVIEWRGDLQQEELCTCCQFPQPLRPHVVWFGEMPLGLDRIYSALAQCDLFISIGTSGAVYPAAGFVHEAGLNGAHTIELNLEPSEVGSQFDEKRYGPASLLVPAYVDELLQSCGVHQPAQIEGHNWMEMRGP

AhCobB [2] = molecular target: T1, AhCobB; assay: deacetylation of Kac-BSA, anti-Kac western blot; details: 0.5 mM NAM; 150 mM Tris-HCl pH 8.0, 10% glycerol, 37 °C, 3 h; inhibitor
ICD = molecular target: T2, ICD (Aeromonas hydrophila, UniProt A0KI74); assay: NADPH formation, absorbance at […] nm; details: 0.5 mM NADP, 1.5 mM isocitrate, 3 mM MgCl2, 100 mM Tris-HCl pH 8.0, 10% glycerol
T2 construct: recombinant, pET-21b vector, E. coli BL21(DE3), Ni-NTA purified; non-acetylated form
T2 sequence (A0KI74 1-417): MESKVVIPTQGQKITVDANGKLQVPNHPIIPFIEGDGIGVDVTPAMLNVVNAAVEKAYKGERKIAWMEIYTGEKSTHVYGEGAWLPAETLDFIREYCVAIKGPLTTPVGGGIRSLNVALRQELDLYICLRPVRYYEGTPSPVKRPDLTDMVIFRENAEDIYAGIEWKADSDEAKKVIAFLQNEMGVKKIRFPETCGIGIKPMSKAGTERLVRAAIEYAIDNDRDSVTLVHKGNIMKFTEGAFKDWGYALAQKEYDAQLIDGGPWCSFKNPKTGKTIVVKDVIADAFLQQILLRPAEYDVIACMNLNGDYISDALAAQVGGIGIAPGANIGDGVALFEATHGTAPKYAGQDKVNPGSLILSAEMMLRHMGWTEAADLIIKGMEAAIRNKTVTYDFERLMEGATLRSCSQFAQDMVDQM

Compound: NC(=O)c1ccc[n+]([C@@H]2O[C@H](COP(=O)(O)OP(=O)(O)OC[C@H]3O[C@@H](n4cnc5c(N)ncnc54)[C@H](O)[C@@H]3O)[C@@H](O)[C@H]2O)c1 [NAD^+]
- deacetylation of Kac-BSA, anti-Kac western blot (AhCobB [1]): AhCobB and AhAcuC significantly deacetylated Kac-BSA in the presence of NAD^+ or Zn2 ^+ buffer

Compound: NC(=O)c1cccnc1 [nicotinamide]
- inhibition (AhCobB [2]): the KDAC activity of AhCobB was inhibited when the sirtuin inhibitor nicotinamide (NAM) was added

Compound: NC(=O)c1ccc[n+]([C@@H]2O[C@H](COP(=O)(O)OP(=O)(O)OC[C@H]3O[C@@H](n4cnc5c(N)ncnc54)[C@H](OP(=O)(O)O)[C@@H]3O)[C@@H](O)[C@H]2O)c1 [NADP^+]
- NADPH formation, absorbance at 340 nm (ICD): The enzymatic activity of ICD was detected by measuring the amount of NADPH generated
